From article PMC5603512, “Discovery, Semisynthesis, Antiparasitic and Cytotoxic Evaluation of 14-Membered Resorcylic Acid Lactones and Their Derivatives” (Scientific Reports, 2017)
pIC50: −log10 of the molar value.

Experiments:
[1] = Cytotoxicity MTT assay, K562; conditions: human
Experimental: (§1) All of the compounds were also evaluated for their cytotoxic properties against six human cancer cell lines (lung carcinoma epithelian (A549), colon carcinoma (HCT-116), pancreatic carcinoma (BXPC-3), breast cancer (MCF-7), cervical epithelium (HeLa), and erythroleukemic (K562)) and a human umbilical vein endothelial cell (HUVEC) line (Table 2).
(§2) The cytotoxicity against HCT-116, BXPC-3, HeLa, MCF-7, A-549, and HUVEC cell lines was evaluated using the SRB method. The cytotoxicity against K562 and Vero cell lines was evaluated using the MTT method. Adriamycin was used as a positive control. All cells were cultivated in T-75 flasks containing 10% Fetal Bovine Serum (FBS), Dulbeco’s Modified Eagle Medium (DMEM) with 2 mM L-glutamine, and 1% penicillin-streptomycin at 37 °C in a humidified atmosphere with 5% CO2. For SRB assay, cells in their log phase of growth were seeded into 96 well micro plates (4 × 10^4 cells per well) and followed by treating with test samples at 10 μM or DMSO. After incubation at 37 °C for 72 h, the cells were fixed with the cold 20% (w/v) TCA for 2 h and stained with Sulforhodamine B (SRB) dye for 0.5 h. The protein-bound dye is dissolved in Tris base solution for OD determination at 540 nm on an ELISA Plate Reader. For MTT assay, cells (5 × 10^3 cells per well) were plated in 96 well micro plates. After cell attachment overnight, new medium containing test compounds or DMSO was added. The plate was incubated for 48 h at 37 °C and incubated with 3-(4,5-dimethylthiazol-2-yl)-2,5-diphenyltetrazolium bromide (MTT) for additional 2–4 hours. The assay plate was then read at 490 nm on an ELISA Plate Reader. The data were obtained from experiments carried out in triplicate.

Leishmania donovani = assay: Antileishmanial assay (PicoGreen); format: cell-based; conditions: in vitro, read-out: Leishmania donovani IC50
Experimental: The anti-leishmania activity was evaluated following the protocol described by Calderon et al.[39], using the fluorescent DNA intercalator PicoGreen (Invitrogen, USA). The species responsible for visceral leishmaniasis, L. donovani, was used for the assays.

Trypanosoma cruzi = assay: Antitrypanosomal assay (beta-galactosidase reporter, intracellular amastigotes in Vero cells); format: cell-based; conditions: Tulahuen clone C4, intracellular amastigotes in Vero cells, 120 h; further: key: I: Inactive
Experimental: Briefly, the expression of the reporter gene for beta-galactosidase (β-Gal) in the Tulahuen clone C4 of T. cruzi is assessed by colorimetry at 570 nm, which correlates with the parasite growth. Assays were performed on the intracellular amastigote form of the parasite infecting African green monkey kidney (Vero) cells, incubated for 120 h at 37 °C with 5% CO2.

[2] = Cytotoxicity SRB assay, BXPC-3; conditions: human
Experimental: as §1, §2

[3] = Cytotoxicity SRB assay, HUVEC; conditions: human
Experimental: as §1, §2

[4] = Cytotoxicity SRB assay, MCF-7; conditions: human
Experimental: as §1, §2

[5] = Toxicity against Vero cells (MTT); format: cell-based, African green monkey; conditions: African green monkey, MTT, 48 h
Experimental: (§3) It should be emphasized that toxicity is a major concern of drug discovery and development. The above active compounds were evaluated for in vitro toxicity against a mammalian kidney cell line (Vero). The selectivity index (SI) was used as the evaluation parameter of drug potential of the test samples by comparing the toxicity on the Vero cell line (CC50) and the selective inhibitory effect on P. falciparum, L. donovani or T. cruzi (IC50) calculated here as CC50/IC50.
(§4) Adriamycin was used as a positive control.

Vero cells = assay: Toxicity against Vero cells (MTT); format: cell-based, African green monkey; conditions: in vitro toxicity against mammalian kidney cell line (Vero)
Experimental: as §3, §4

[6] = Cytotoxicity SRB assay, A-549; conditions: human
Experimental: as §1, §2

[7] = Cytotoxicity SRB assay, HeLa; conditions: human
Experimental: as §1, §2

[8] = Cytotoxicity SRB assay, HCT-116; conditions: human
Experimental: as §1, §2

Plasmodium falciparum = assay: Antiplasmodial assay (PicoGreen growth inhibition in infected human erythrocytes); format: cell-based; conditions: Erythrocyte, in vitro, W2 and 3D7 strains cultured, strain of the values not stated, read-out: Plasmodium falciparum IC50
Experimental: Activity against the causative agent of malaria was performed by culturing human erythrocytes and infecting them with P. falciparum, as described by Trager and Jensen[36]. Briefly, the W2 (Chloroquine resistant) and 3D7 (Chloroquine sensitive) strains of P. falciparum were cultured in RPMI 1640 medium (Sigma-Aldrich, USA) supplemented with 10% human serum (from O+ blood) at a hematocrit of 2% erythrocytes (O+) at 37 °C in a gas mixture of 5% CO2, 5% O2, and 90% N2. Parasites were synchronized by a temperature cycling technique as described by Almanza et al.[37]

[9] = Cytotoxicity against the panel of six human cancer cell lines and HUVEC
Experimental: as §1, §2

P. falciparum lines 3D7 = tested on: P. falciparum lines 3D7; set-up: method as in PMID 20429578, PMID 20429578; conditions: line 3D7; read-out: IC50 against P. falciparum line 3D7; cited from earlier work
P. falciparum lines Dd2 = conditions: line Dd2; read-out: IC50 against P. falciparum line Dd2; cited from earlier work
[10] = Chemical stability / interconversion in solvents; format: physicochemical; conditions: MeOH, EtOH, MeOH-d4 (except H2O), stationary state, within a week
Experimental: Compounds 1–6 and 11–27 were designed and synthesized through one or two-step semisynthetic reaction with high yields ranging from 65–95% from 7 and 8 (Fig. 1). The structures of new derivatives 12, 14–19, 21–22, 24, and 27 were identified by extensive spectroscopic methods including HRESIMS, ^1H NMR, and ^13C NMR. Compound 1 was prepared in yield of 95% through one-step acetonide reaction from 8. Other acetonide derivatives (11, 17, 18, 20, 23, 25, and 26) were also prepared with the same yields. Chlorination of compound 8 with sulfuryl chloride[33] followed by selective reduction with 10% Pd-C under H2 atmosphere led to the natural compound 2 (68%, yield). Acylation reaction was carried out by reaction of anhydride with the corresponding materials (1–3, and 6–8) in high yields (85–95%). In order to prepare 6, oxidation of the allyl alcohol 8 was examined under various oxidation conditions (PCC, PDC, MnO2, DMP, and IBX). However, only DMP and IBX enabled the selective oxidation of the allyl alcohol to give 6 in 65% and 35% yields, respectively (Fig. 3). […] Compounds 3–6 are diastereomers differing from each other by the absolute configurations of the 4′, 5′-diol chiral centers. The proportions of compounds 3–6 were in dynamic equilibrium, and the final ratios of 3–6 were approximately 8: 2: 5: 6 (Fig. 4). […]

[11] = BXPC-3 pancreatic carcinoma cells
[12] = HUVEC (umbilical vein endothelial cells)
[13] = Vero cells (mammalian kidney cell line)

For `COc1cc2c(c(OC(C)=O)c1)C(=O)O[C@@H](C)C/C=C/[C@H](OC(C)=O)[C@@H](OC(C)=O)[C@@H](OC(C)=O)C/C=C/2` [Compound 13], the IC50 at 48 h ([1]; K562 erythroleukemic cells) was greater than 10 µM, the pIC50 (Leishmania donovani) was less than 4.80 and the “Trypanosoma cruzi IC50” value (Trypanosoma cruzi) was “I”. For the same compound, the IC50 at 72 h [2, 11] was greater than 10 µM, the IC50 at 72 h [3, 12] was greater than 10 µM and the IC50 at 72 h ([4]; MCF-7 breast cancer cells) was greater than 10 µM. The CC50 at 48 h [5, 13] was 427 µM, the “Toxicity (in words)” value (Vero cells) was “non-toxic” and the IC50 at 72 h ([6]; A-549 lung carcinoma cells) was greater than 10 µM. It also gave an IC50 at 72 h ([7]; HeLa cervical epithelium cells) greater than 10 µM, an IC50 at 72 h ([8]; HCT-116 colon carcinoma cells) greater than 10 µM and a pIC50 (Plasmodium falciparum) of 5.16.
With `COc1cc2c(c(OC(C)=O)c1)C(=O)O[C@@H](C)C/C=C/C(=O)[C@@H](OC(C)=O)[C@@H](OC(C)=O)C/C=C/2` [Compound 21] the IC50 at 48 h ([1]; K562 erythroleukemic cells) was greater than 10 µM, the pIC50 (Leishmania donovani) was 5.43 and the IC50 at 72 h [2, 11] was greater than 10 µM. The IC50 at 72 h [3, 12] was 4.52 µM, the IC50 at 72 h ([4]; MCF-7 breast cancer cells) was greater than 10 µM and the pIC50 [9] was greater than 5.00. For the same compound, the CC50 at 48 h [5, 13] was 5.8 µM, the IC50 at 72 h ([6]; A-549 lung carcinoma cells) was greater than 10 µM and the IC50 at 72 h ([7]; HeLa cervical epithelium cells) was 6.95 µM. For the same compound, the IC50 at 72 h ([8]; HCT-116 colon carcinoma cells) was greater than 10 µM and the pIC50 (Plasmodium falciparum) was less than 4.51.
In the case of `COc1cc(O)c2c(c1)/C=C/C[C@H](O)[C@H](O)[C@H](O)CCC[C@H](C)OC2=O` [Paecilomycin F, paecilomycin F], the pIC50 (P. falciparum lines 3D7) is given as 5.96 and the pIC50 (P. falciparum lines Dd2) is given as 5.77.
With `COc1cc(O)c2c(c1)/C=C/C[C@@H]1OC(C)(C)O[C@@H]1C(=O)/C=C/C[C@H](C)OC2=O` [Compound 20] the IC50 at 48 h [1] was greater than 10 µM, the pIC50 (Leishmania donovani) was 5.19 and the IC50 at 72 h [2] was greater than 10 µM. The IC50 at 72 h [3] was 9.78 µM, the IC50 at 72 h [4] was greater than 10 µM and the pIC50 [9] was greater than 5.00. The CC50 at 48 h [5] was less than 1 µM, the IC50 at 72 h [6] was greater than 10 µM and the IC50 at 72 h [7] was 7.21 µM. The IC50 at 72 h [8] was greater than 10 µM and the pIC50 (Plasmodium falciparum) was less than 4.51.
Compound `COc1cc(O)c2c(c1)C=CCC1OC(C)(C)OC1C(=O)C=CCC(C)OC2=O` (centres unmarked) [Compound 26] has an IC50 at 48 h [1] greater than 10 µM, a pIC50 (Leishmania donovani) of 5.91 and an IC50 at 72 h [2] of 7.22 µM. It also gave an IC50 at 72 h [3] of 4.81 µM, an IC50 at 72 h [4] greater than 10 µM and a pIC50 [9] greater than 5.00. For the same compound, the CC50 at 48 h [5] was less than 1 µM, the IC50 at 72 h [6] was greater than 10 µM and the IC50 at 72 h [7] was 4.02 µM. For the same compound, the IC50 at 72 h [8] was 9.16 µM and the pIC50 (Plasmodium falciparum) was 5.05.
In the case of `COc1cc(O)c2c(c1)/C=C/C[C@H](OC(C)=O)[C@H](OC(C)=O)[C@@H](OC(C)=O)/C=C/C[C@H](C)OC2=O` [Compound 12], the IC50 at 48 h ([1]; K562 erythroleukemic cells) was greater than 10 µM, the pIC50 (Leishmania donovani) was 4.80 and the pIC50 (Trypanosoma cruzi; Trypanosoma cruzi, read-out: Trypanosoma cruzi IC50) was 4.76. It also gave an IC50 at 72 h [2, 11] greater than 10 µM, an IC50 at 72 h [3, 12] greater than 10 µM and an IC50 at 72 h ([4]; MCF-7 breast cancer cells) greater than 10 µM. The CC50 at 48 h [5, 13] was 1520 µM, the “Toxicity (in words)” value (Vero cells) was “non-toxic” and the IC50 at 72 h ([6]; A-549 lung carcinoma cells) was greater than 10 µM. For the same compound, the IC50 at 72 h ([7]; HeLa cervical epithelium cells) was greater than 10 µM, the IC50 at 72 h ([8]; HCT-116 colon carcinoma cells) was greater than 10 µM and the pIC50 (Plasmodium falciparum) was 5.08.
`COc1cc(O)c2c(c1)/C=C/C[C@H](O)[C@H](O)C(=O)/C=C/C[C@H](C)OC2=O` [Compound 6] gave an IC50 at 48 h ([1]; K562 erythroleukemic cells) greater than 10 µM, a pIC50 (Leishmania donovani) of 5.71 and an IC50 at 72 h [2, 11] of 8.47 µM. The “Stability in protic solvents” value [10] was “subtle chemical conversion of 6 to 3–5”, the IC50 at 72 h [3, 12] was 8.59 µM and the IC50 at 72 h ([4]; MCF-7 breast cancer cells) was greater than 10 µM. It also gave a pIC50 [9] greater than 5.00, a CC50 at 48 h [5, 13] of 3.2 µM and an IC50 at 72 h ([6]; A-549 lung carcinoma cells) greater than 10 µM. The IC50 at 72 h ([7]; HeLa cervical epithelium cells) was greater than 10 µM, the IC50 at 72 h ([8]; HCT-116 colon carcinoma cells) was greater than 10 µM and the pIC50 (Plasmodium falciparum) was 4.83.
